In a melting point compilation (Tetko et al.; mined from patent text by program, amines drawn as free bases though some values may be those of a salt):

| Structure (SMILES) | melting point [°C] |
| --- | --- |
| CC(C)(C)c1cnc(CSc2cnc(NC(=O)Cc3ccc(OCCCC(=O)Nc4ccccn4)cc3)s2)o1 | 126 to 129 |
| CC(=O)C1CCC2C3CCC4CC(OC(=O)C(F)(F)F)CCC4(C)C3C(=O)CC12C (centres undefined) | 107 to 108 |
| COC(=O)C=Cc1ccc(-c2ccccc2)cc1 | 144 to 147 |
| O=c1[nH]c2ccccc2n1CCCN1CCNCC1 | 158 |
| C=C(C)n1cc(C(=O)O)c(=O)c2cc(F)c(N3CC[C@H](N)C3)cc21 | 249 to 255 |
| CCn1cc(C(=O)O)c(=O)c2cc(F)c(N)nc21 | 299 to 303 |
| CC1=Nc2ccccc2CC(c2ccsc2)N1C (centres undefined) | 113 to 117 |
| COCc1nc(C(=O)OC)c(C(=O)OC)n1Cc1ccc([N+](=O)[O-])cc1 | 107 to 110 |
| Nc1ccc(C(c2ccccc2F)n2ccnc2)cc1[N+](=O)[O-] (centres undefined) | 176 |
| COc1cc2c(cc1OC)CN(CCCc1ccc(NC(=O)c3cccc4c(=O)c5cccc(C)c5[nH]c34)cc1)CC2 | 120 |
| CC(C)c1cccc(C(C)C)c1NC(=O)NCC1(S(=O)(=O)c2ccccc2)CCCC1 | 124 |
| COc1cc2c(cc1CCCCO)oc1cc(-c3ccccc3Cl)c3c(c12)C(=O)NC3=O | 158 to 162 |
| N#Cc1ccccc1C1=CC2CC(=O)CC2C1 (centres undefined) | 36 to 37 |
| O=C(CCC#Cc1ccccn1)Nc1cccc(F)c1 | 110 to 114 |
| Cc1c2c(c(-c3ccc(F)cc3)c3c4c(ccc13)OCO4)CNC2=O | 293 to 295 |
| CCC(=O)c1ccc(C(CC(=O)Nc2cc(C(N)=O)ccc2C(C)(C)C)CC(C)C)c(OC)c1 (centres undefined) | 186 to 187 |
| CCc1nc2c(N)nc3ccccc3c2n1CCCSC | 210 to 212 |
| CCOC(=O)c1c(C)nn(-c2ccccc2[N+](=O)[O-])c1C | 128 to 130 |
| O=C(O)C1COc2ccc(O)cc2O1 (centres undefined) | 204 |
| CC(Nc1nnc(-c2ccsc2)c2ccccc12)c1ccccc1 (centres undefined) | 144 to 146 |
| Cc1cc(C)c(NC(=S)C2(C)CCc3c(C)c(O)c(C)c(C)c3O2)cc1C (centres undefined) | 124 to 125 |
| CS(=O)(=O)NCCc1ccncc1 | 114 to 116 |
| CC1(O)c2ccccc2COc2ccc(C(=O)O)cc21 (centres undefined) | 258 |
| CC1CCC(NC(=O)NS(=O)(=O)c2ccc(CCNC(=O)N3CC4CCCCC4C3=O)cc2)CC1 (centres undefined) | 153 to 155 |

| Structure (SMILES) | melting point [°C] |
| --- | --- |
| CCOC(=O)c1c(-c2cccs2)nn(CC)c(=O)c1Nc1cccnc1 | 124 to 125 |
| CCCCCC1(C)OCc2c1cnc(C)c2O (centres undefined) | 222 |
| COC(=O)CCCC#CCN1C(=O)c2ccccc2C1=O | 62 to 63 |
| CCOC(=O)C(C)OCc1cc2nc(C(F)(F)F)ccc2n1S(=O)(=O)c1ccc2ncsc2c1 (centres undefined) | 96 |
| COc1cnc(NCCNCC(O)COc2ccccc2)c2ccccc12 (centres undefined) | 152 to 153 |
| CN1CC2CC(=O)NC3C=CC=C4Cc5ccccc5C(C1)C2N43 (centres undefined) | 165 to 168 |
| Cc1cccc2c1SC(C(F)(F)F)C(C(=O)O)=C2 (centres undefined) | 224 to 225 |
| O=C(C=C1CCCN1)c1ccc(Cl)c(Cl)c1 | 208 to 209 |
| CCOC(=O)C(Cc1cccc(OCC(F)(F)F)c1)C(=O)c1ccc(F)cc1 (centres undefined) | 48 to 49 |
| CC(O)(C#Cc1ccc(C(=O)c2ccccn2)cc1)C(F)(F)F (centres undefined) | 116 to 118 |
| C=CCn1c(C)c(C)c2cnnc(OCc3ccc(F)cc3F)c21 | 125 to 126 |
| CC(C)(C)C(=O)NCc1cccs1 | 64 to 65 |
| O=C(Nc1ccc(-n2nc(C(F)(F)F)cc2C(F)(F)F)cc1)c1cc(F)c(F)c(F)c1 | 158 to 159 |
| Cc1cc(N2C=CC(=O)CC2)nn2cnnc12 | 264 to 266 |
| Cc1cnc(C(=O)c2[nH]c3cc(Cl)ccc3c2CC(=O)O)cc1C | 226 to 228 |
| CCOC(=O)Nc1ccc(C(=O)Nc2ccc3ccc(OC)nc3n2)cc1 | 200 |
| CC(=O)NCCCCOC1c2ccccc2C(=O)N1c1ccc2ccc(Cl)nc2n1 (centres undefined) | 120 |
| OCc1cccnc1Nc1ccccc1 | 180 to 182 |
| Cc1nnc2n1-c1ccc(C#CCOc3ccccc3)cc1C(c1ccccc1Cl)=NC2 | 160 to 162 |
| Cn1cnc2ncnn2c1=S | 238 to 240 |
| N#Cc1ccc(NC(=O)OC2CN3CCC2CC3)cc1 (centres undefined) | 180 to 182 |
| O=C(NCCO)/C(=C/c1ccc(C2CC2)cc1)NC(=O)c1ccc(OCCc2ccccc2)cc1 | 113 to 115 |
| COC(=O)c1ccc(Nc2ccc([N+](=O)[O-])cc2C(=O)OC)cc1 | 205 to 206 |

Second part, the compound after the results:

| melting point [°C] | Structure (SMILES) |
| --- | --- |
| 202 to 204 | Nc1c(C(=O)c2ccc(Cl)cc2)oc2ccccc12 |
| 185 to 187 | CC(=O)N1C(=O)NC2(C1=O)C(=O)N(Cc1ccc(Cl)c(Cl)c1)c1ccccc12 (centres undefined) |
| 169 to 170 | COc1ccc(C2c3cc(NC(=O)CC(C)(C)C)c(C)c(C)c3OC2(C)C)cc1 (centres undefined) |
| 216 to 217 | CCOP(=O)(/C=C/c1ccc2cc(NC(=O)c3cccnc3)cc(-c3cccc4ccccc34)c2n1)OCC |
| 149 to 150 | CC(=O)Nc1ccc(-n2nc(CCCCCC(=O)O)c3c2CCC3)cc1 |
| 314 to 315 | COc1ccccc1-n1c(=O)[nH]c2c(C(N)=O)nc(Nc3ccccc3O)nc21 |
| 120 to 122 | CSc1ccc2c(C3CCN(C(C)=O)CC3)nn(-c3ccccc3)c2c1 |
| 152 to 153 | CCCn1c(=O)c2nc([C@@H]3CCC[C@H]3c3ccccc3)[nH]c2n(CCC)c1=O (relative stereo) |
| 81 to 82 | CC(=O)c1ccc(Nc2ccccc2C(C)=C(Cl)Cl)cc1 |
| 144 to 146 | COc1ccc(N2CCCn3c2nc2c(Cl)ccc(C(OC)C(F)(F)F)c23)c(C)n1 (centres undefined) |
| 285 to 286 | COc1cc(C(=O)NC2CC(C)(C)N(C)C(C)(C)C2)ccc1-c1nc2cc(Cl)c(Cl)cc2[nH]1 |
| 162 to 164 | CC1=C(C(=O)OC(C)C)C(c2cccc([N+](=O)[O-])c2)n2c(cc(=O)n2C(=O)OC(C)C)N1 (centres undefined) |
| 79 to 81 | CN(CC(O)c1cccc(O)c1)C(=O)c1cnc(N(C)C)nc1-c1ccccc1 (centres undefined) |
| 74.5 to 77.5 | Nc1c(-c2cc(Cl)ccc2O)nnn1-c1ccc(C(F)(F)F)cc1Cl |
| 170 to 174 | N#Cc1cccc(-c2nnc(-c3cccnc3)o2)c1 |
| 111 to 113 | CCCc1nc2c(N)nc3cc(OCCOCCNC(=O)OC(C)(C)C)ccc3c2s1 |
| 69 to 70 | Clc1ccsc1-c1nc(COc2ccc(CCCn3ccnc3)cc2)co1 |
| 57 to 60 | OCC1=CCN(Cc2ccccc2)CC1 |
| 168 to 170 | CC(=O)NCC1CN(c2ccc(N3CCN(c4nc(C)ns4)CC3)c(F)c2)C(=O)O1 (centres undefined) |
| 192 to 194 | CC(C)[C@H](NC(=O)c1ccc2ccccc2n1)C(=O)NC(Cc1ccccc1)C(O)CNCC(O)C(Cc1ccccc1)NC(=O)OC(C)(C)C (some centres undefined) |
| 56 to 58 | CN(C)Cc1ccccc1Sc1ccc(F)cc1N |
| 155 to 156 | CCc1cc2c(-c3ccccc3Cl)c(C(=O)O)c(=O)n(C)c2s1 |
| 134 to 136 | CCCCCCc1c(CCCC)nc2ncnn2c1N |
| 238 | O=C(O)C1c2ccccc2N=C(N2CCCCC2)N1c1ccccc1 (centres undefined) |
| 168 to 169 | CC(=NNC(=S)NCCN1CCOCC1)c1ccccn1 |
| 190 to 192 | O=[N+]([O-])C=C1SCCN1Cc1ccco1 |

| melting point [°C] | Structure (SMILES) |
| --- | --- |
| 127 to 131 | CCCc1nccn1C(C)COCC1=C(C(=O)OCC)C(c2ccccc2Cl)C2=C(CCCC2=O)N1 (centres undefined) |
| 207 to 210 | N#CN=C1NCCN1CC#CCNC(=O)C(O)(c1ccccc1)C1CCCCC1 (centres undefined) |
| 78.3 to 80.8 | CN(C)CCOc1cc(CCCOc2nn(Cc3ccccc3)cc2CC(=O)O)n(Cc2ccc(Cl)cc2Cl)n1 |
| 104 to 106 | COc1ccc(Cn2cnc3c(Cl)nc(C(F)(F)F)nc32)cc1 |
| 184 | O=C1CCC2=C(CCc3cccc(Cl)c32)N1 |
| 298 to 300 | Nc1nc(Nc2ccc(S(N)(=O)=O)cc2)sc1C(=O)c1ccc(C(=O)O)cc1 |
| 138 to 139 | COc1cc(OCC(=O)O)c(C)cc1SCc1ccc(-c2cccc(C(F)(F)F)c2)cc1 |
| 103 | O=C(NCCCC(NC(=O)c1ccccc1)C(O)C(F)(F)F)c1ccccc1 (centres undefined) |
| 225 | CCCCc1nc(=O)c2cc(Br)c(F)cc2[nH]1 |
| 248 to 249 | O=C(CCCl)Nc1cccc2c1C(=O)c1c(NC(=O)CCCl)cccc1C2=O |
| 118 | CNC(=S)NCc1cc(-c2ccccc2)no1 |
| 178 to 179 | CC(=O)Oc1ccc(-c2cnc(C)[nH]c2=O)cc1OC(C)=O |
| 160 to 162 | COc1ccc2nc(-c3cc(C)c(OCCO)c(C)c3)n(-c3ccc(Br)cc3)c(=O)c2c1 |
| 73 to 76 | CCOC(=O)c1cnn(-c2ccccn2)c1S(N)(=O)=O |
| 186 to 188 | O=C(Nc1ccc(Cl)cn1)c1cc(Cl)ccc1NCC1CCN(C2CCCCC2)CC1 |
| 128 to 129 | CCOC(=O)c1[nH]c(Cl)nc1-c1ccccc1 |
| 162 to 168 | N#Cc1ccc(-c2ccc(I)cc2)cc1 |
| 124 to 126 | CNc1ccccc1C(O)c1ccccc1 (centres undefined) |
| 262 to 264 | O=C(NCCc1c(Cl)cccc1Cl)c1c(Cl)ccc2nc(N3CCC(C(=O)O)CC3)ccc12 |
| 118 to 120 | CS(=O)(=O)Nc1cc(C(c2cc(F)ccc2F)S(=O)(=O)c2ccc(F)c(F)c2)c(Cl)cn1 (centres undefined) |
| 81 to 93 | Cc1nc(C)c(Cl)c(NCc2nccc(N(C)CCN3CCc4ccccc4C3)c2Cl)n1 |
| 226 to 227 | CC(C)CCOc1ccc(-c2c(Cl)c(CN3C(=O)CCC3=O)nc3sc4c(c23)CCNC4)cc1 |
| 119 | N#CCC(=O)NCc1ccc(Cl)nc1 |
| 238 | O=C(O)c1c(Br)c(Br)c([N+](=O)[O-])c2c1OCCO2 |
| 90 to 93 | OC1(c2cccc(C(F)(F)F)c2)CCN(CCCC2(c3ccc(F)cc3F)OCCO2)CC1 |
| 208 to 209 | CC(C)n1nc(-c2c(-c3ccccc3)nn3ccc(OCC(=O)Nc4ccccc4)cc23)ccc1=O |
